Source: the supplement of paper PMC10307832

Columns and labels:
Assay in all cases: relative viability (nuclei count vs DMSO), 5 days (fraction); higher = more cells survive
Tosedostat + Phenformin = compound: CC(C)C[C@@H](C(=O)N[C@H](C(=O)OC1CCCC1)c1ccccc1)[C@H](O)C(=O)NO [Tosedostat] + N=C(N)NC(=N)NCCc1ccccc1 [Phenformin] (partner 250 µM)
Procedure, shortened: (§1)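 Relative viability equals treated-well nuclei counts divided by vehicle-well nuclei counts. Counts came from 4× images of lung cancer cell lines grown in 1536-well plates for 5 days after pin-tool dosing on the day after seeding. Dosing used one drug alone or a fixed anchor-drug dose plus five library-drug doses (not always all listed) in √10 steps, and values are medians of duplicate plates.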

Tosedostat + Vorinostat = compound: CC(C)C[C@@H](C(=O)N[C@H](C(=O)OC1CCCC1)c1ccccc1)[C@H](O)C(=O)NO [Tosedostat] + O=C(CCCCCCC(=O)Nc1ccccc1)NO [Vorinostat] (partner 1 µM)
Procedure, shortened: as §1

[1] = compound: CC1=NN=C(O1)C2=NN=C(C=C2)N3CCC(CC3)OC4=C(C=CC(=C4)F)Cl + CS(=O)(=O)CCNCc1ccc(-c2ccc3ncnc(Nc4ccc(OCc5cccc(F)c5)c(Cl)c4)c3c2)o1 [Lapatinib] (partner 2 µM)
Procedure, shortened: as §1

[2] = compound: CC1=NN=C(O1)C2=NN=C(C=C2)N3CCC(CC3)OC4=C(C=CC(=C4)F)Cl + O=C(CCCCCCC(=O)Nc1ccccc1)NO [Vorinostat] (partner 1 µM)
Procedure, shortened: as §1

Row | Cell Line | relative viability (Tosedostat + Phenformin; first compound 0.02 µM) | relative viability (Tosedostat + Phenformin; first compound 0.06325 µM) | relative viability (Tosedostat + Phenformin; first compound 0.2 µM) | relative viability (Tosedostat + Phenformin; first compound 0.6325 µM) | relative viability (Tosedostat + Phenformin; first compound 2 µM) | relative viability (Tosedostat + Vorinostat; first compound 0.02 µM) | relative viability (Tosedostat + Vorinostat; first compound 0.06325 µM) | relative viability (Tosedostat + Vorinostat; first compound 0.2 µM) | relative viability (Tosedostat + Vorinostat; first compound 0.6325 µM) | relative viability (Tosedostat + Vorinostat; first compound 2 µM) | relative viability ([1]; first compound 0.253 µM) | relative viability ([1]; first compound 0.8 µM) | relative viability ([1]; first compound 2.53 µM) | relative viability ([1]; first compound 8 µM) | relative viability ([2]; first compound 0.253 µM) | relative viability ([2]; first compound 0.8 µM) | relative viability ([2]; first compound 2.53 µM) | relative viability ([2]; first compound 8 µM)
1 | PC-3 [JPC-3] | 0.468 | 0.463 | 0.491 | 0.442 | 0.408 | 0.861 | 0.949 | 0.656 | 0.606 | 0.561 | 0.404 | 0.453 | 0.445 | 0.432 | 0.703 | 0.526 | 0.797 | 0.478
2 | NCI-H1755 | 0.599 | 0.574 | 0.571 | 0.602 | 0.406 | 0.912 | 0.795 | 0.732 | 0.768 | 0.637 | 0.59 | 0.708 | 0.665 | 0.592 | 0.538 | 0.553 | 0.611 | 0.538
3 | NCI-H23 | 0.782 | 0.802 | 0.754 | 0.707 | 0.404 | 0.646 | 0.52 | 0.707 | 0.502 | 0.51 | 1.03 |  | 0.955 | 0.876 | 0.565 | 0.359 | 0.558 | 0.514
4 | NCI-H1915 | 0.374 | 0.366 | 0.365 | 0.35 | 0.358 | 0.51 | 0.457 | 0.516 | 0.503 | 0.527 | 0.431 | 0.334 | 0.401 | 0.322 | 0.457 | 0.219 | 0.401 | 0.325
5 | NCI-H2405 | 0.398 | 0.407 | 0.397 | 0.368 | 0.359 | 1.06 | 1.12 | 0.955 | 0.841 | 0.798 | 0.756 | 0.809 | 0.859 | 0.754 | 0.583 | 0.556 | 0.535 | 0.455
6 | EMC-BAC-2 | 0.495 | 0.508 | 0.552 | 0.473 | 0.442 | 0.605 | 0.713 | 0.471 | 0.408 | 0.323 | 0.837 | 0.843 | 0.854 | 0.647 | 0.512 | 0.426 | 0.446 | 0.239
7 | NCI-H2087 | 0.473 | 0.413 | 0.329 | 0.28 | 0.22 | 0.718 | 0.667 | 0.66 | 0.735 | 0.667 | 0.618 | 0.56 | 0.554 | 0.51 | 0.242 | 0.376 | 0.408 | 0.291
8 | NCI-H727 | 0.705 | 0.485 |  | 0.442 | 0.397 | 1.18 | 1.26 | 1.1 | 0.886 | 0.683 | 0.815 | 0.721 | 1.01 | 0.795 | 1.16 | 1.02 | 1.38 | 1.22
9 | PC-14 | 0.653 | 0.54 | 0.452 | 0.448 | 0.38 | 0.819 | 0.653 | 0.712 | 0.58 | 0.458 | 0.294 | 0.31 | 0.302 | 0.313 | 0.695 | 0.543 | 0.714 | 0.567
10 | NCI-H2009 | 0.562 | 0.477 | 0.477 | 0.468 | 0.419 | 0.808 | 0.659 | 0.736 | 0.633 | 0.645 | 0.453 | 0.421 | 0.427 | 0.464 | 0.428 | 0.343 | 0.422 | 0.36
11 | NCI-H1975 | 0.4 | 0.401 | 0.412 | 0.342 | 0.375 | 0.741 | 0.742 | 0.678 | 0.611 | 0.622 |  | 0.746 | 0.859 | 0.753 | 0.606 | 0.643 | 0.629 | 0.619
12 | NCI-H1437 | 0.28 | 0.28 | 0.295 | 0.332 | 0.299 | 1.04 | 0.754 | 0.976 | 1.12 | 0.958 | 0.434 | 0.486 | 0.545 | 0.453 | 0.492 | 0.491 | 0.523 | 0.376
13 | NCI-H2126 | 0.492 | 0.535 | 0.477 | 0.489 | 0.462 | 0.635 | 0.822 | 0.81 | 0.701 | 0.79 | 0.552 | 0.759 | 0.702 | 0.699 | 0.754 | 0.651 | 0.642 | 0.631
14 | LU99A | 0.925 | 0.903 | 0.821 | 0.641 | 0.547 | 0.573 | 0.583 | 0.445 | 0.388 | 0.381 | 1.02 | 0.952 | 0.978 | 0.816 | 0.549 | 0.456 | 0.534 | 0.563
15 | NCI-H460 | 0.551 | 0.473 | 0.505 | 0.426 | 0.48 | 0.83 | 0.708 | 0.676 | 0.699 | 0.714 | 0.313 | 0.326 | 0.283 | 0.276 | 0.16 | 0.215 | 0.208 | 0.19
16 | LCLC-97TM1 | 0.402 | 0.433 | 0.445 | 0.403 | 0.439 | 0.682 | 0.602 | 0.533 | 0.532 | 0.47 | 0.827 |  | 0.553 | 0.687 | 0.649 |  | 0.522 | 0.573
17 | NCI-H838 | 0.489 | 0.56 | 0.519 | 0.659 | 0.711 | 0.772 | 0.732 | 0.808 | 0.833 | 0.87 | 0.86 | 0.645 | 0.842 | 0.78 | 0.583 | 0.599 | 0.607 | 0.623
18 | SK-LU-1 | 0.598 | 0.535 | 0.52 | 0.428 | 0.525 | 0.897 | 0.721 | 0.717 | 0.677 | 0.717 | 0.703 | 0.749 | 0.772 | 0.807 | 0.675 | 0.629 | 0.662 | 0.589
